Experimental data from ChEMBL document CHEMBL5376002, “A Hybrid Antimicrobial Peptide Targeting Staphylococcus aureus with a Dual Function of Inhibiting Quorum Sensing Signaling and an Antibacterial Effect” (J Med Chem, 2023).
Converted amounts (≈) assume the structure as drawn. The source made the active and inactive calls. The rule behind the calls is not given here. Numbered stars: 1 amine (or outer) side, 2 acyl side, 3 side chain; on linkers, the order of the positions; unused ones are H or OH. Bridge positions count the residues as written; N and C are the ends. Square brackets hold non-standard residues; d marks the D form. Peptide text beside a SMILES is read from it. I, II: the chains in the order shown. X1 = O=C1CC([*:2])C(=O)N1CCCCCC(=O)[*:1]; Dab = NCC[C@H](N)C(=O)O

Legend:
[1] = test system: Staphylococcus aureus; experiment: Inhibition of biofilm formation in Staphylococcus aureus at 0.78 to 1.56 uM incubated for 24 hrs by crystal violet staining based analysis; type: functional, organism-based; conditions: dose 0.78-1.56 µM
[2] = test system: Staphylococcus epidermidis; experiment: Antibacterial activity against Staphylococcus epidermidis ATCC 12228 assessed as inhibition of bacterial growth incubated for 18 to 24 hrs; type: functional; conditions: time 18-24 hrs
[3] = test system: Staphylococcus aureus; experiment: Antivirulence activity against Staphylococcus aureus assessed as downregulation of hla expression level at 1 to 100 uM incubated for 24 hrs by qRT-PCR analysis; type: functional, organism-based; conditions: dose 1-100 µM
[4] = test system: Streptococcus mutans; experiment: Bactericidal activity against Streptococcus mutans ATCC 25175 assessed as inhibition of bacterial growth incubated for 18 to 24 hrs; type: functional; conditions: time 18-24 hrs
[5] = test system: Streptococcus mutans; experiment: Antibacterial activity against Streptococcus mutans UA159 assessed as inhibition of bacterial growth incubated for 18 to 24 hrs; type: functional; conditions: time 18-24 hrs
[6] = test system: Staphylococcus saprophyticus; experiment: Antibacterial activity against Staphylococcus saprophyticus ATCC BAA-750 assessed as inhibition of bacterial growth incubated for 18 to 24 hrs; type: functional; conditions: time 18-24 hrs
[7] = test system: Staphylococcus aureus; experiment: Antibacterial activity against Staphylococcus aureus ATCC 43300 assessed as inhibition of bacterial growth incubated for 18 to 24 hrs; type: functional; conditions: time 18-24 hrs
[8] = test system: Staphylococcus saprophyticus; experiment: Bactericidal activity against Staphylococcus saprophyticus ATCC BAA-750 assessed as inhibition of bacterial growth incubated for 18 to 24 hrs; type: functional; conditions: time 18-24 hrs
[9] = test system: Escherichia coli; experiment: Bactericidal activity against Escherichia coli ATCC 25922 assessed as inhibition of bacterial growth incubated for 18 to 24 hrs; type: functional; conditions: time 18-24 hrs
[10] = test system: Erythrocyte; experiment: Hemolytic activity in rat RBC assessed as hemolysis measured after 20 hrs; type: toxicity, cell-based
[11] = test system: Staphylococcus aureus; experiment: Bactericidal activity against Staphylococcus aureus ATCC 43300 assessed as inhibition of bacterial growth incubated for 18 to 24 hrs; type: functional; conditions: time 18-24 hrs
[12] = test system: Staphylococcus aureus; experiment: Antibacterial activity against Staphylococcus aureus ATCC 12600 assessed as inhibition of bacterial growth incubated for 18 to 24 hrs; type: functional; conditions: time 18-24 hrs
[13] = test system: Staphylococcus aureus; experiment: Antivirulence activity against Staphylococcus aureus assessed as downregulation of RNAIII expression level at 1 to 100 uM incubated for 24 hrs by qRT-PCR analysis; type: functional, organism-based; conditions: dose 1-100 µM
[14] = test system: Staphylococcus aureus; experiment: Bactericidal activity against Staphylococcus aureus ATCC 12600 assessed as inhibition of bacterial growth incubated for 18 to 24 hrs; type: functional; conditions: time 18-24 hrs
[15] = test system: Streptococcus mutans; experiment: Antibacterial activity against Streptococcus mutans ATCC 25175 assessed as inhibition of bacterial growth incubated for 18 to 24 hrs; type: functional; conditions: time 18-24 hrs
[16] = test system: Staphylococcus aureus; experiment: Antivirulence activity against Staphylococcus aureus assessed as downregulation of psm-alpha expression level at 1 to 100 uM incubated for 24 hrs by qRT-PCR analysis; type: functional, organism-based; conditions: dose 1-100 µM
[17] = test system: Escherichia coli; experiment: Antibacterial activity against Escherichia coli ATCC 25922 assessed as inhibition of bacterial growth incubated for 18 to 24 hrs; type: functional; conditions: time 18-24 hrs
[18] = test system: Streptococcus pneumoniae; experiment: Bactericidal activity against Streptococcus pneumoniae ATCC 49619 assessed as inhibition of bacterial growth incubated for 18 to 24 hrs; type: functional; conditions: time 18-24 hrs
[19] = test system: Streptococcus pneumoniae; experiment: Antibacterial activity against Streptococcus pneumoniae ATCC 49619 assessed as inhibition of bacterial growth incubated for 18 to 24 hrs; type: functional; conditions: time 18-24 hrs
[20] = test system: Staphylococcus epidermidis; experiment: Bactericidal activity against Staphylococcus epidermidis ATCC 12228 assessed as inhibition of bacterial growth incubated for 18 to 24 hrs; type: functional; conditions: time 18-24 hrs
[21] = test system: Staphylococcus aureus; experiment: Bactericidal activity against Staphylococcus aureus ATCC 6538p assessed as inhibition of bacterial growth incubated for 18 to 24 hrs; type: functional; conditions: time 18-24 hrs
[22] = test system: Streptococcus mutans; experiment: Bactericidal activity against Streptococcus mutans UA159 assessed as inhibition of bacterial growth incubated for 18 to 24 hrs; type: functional; conditions: time 18-24 hrs
[23] = test system: Staphylococcus aureus; experiment: Antibacterial activity against Staphylococcus aureus ATCC 6538p assessed as inhibition of bacterial growth incubated for 18 to 24 hrs; type: functional; conditions: time 18-24 hrs
[24] = test system: RAW264.7; experiment: Cytotoxicity against mouse RAW264.7 cells assessed as cell viability incubated for 48 hrs by MTT assay; type: functional
[25] = test system: RAW264.7; experiment: Cytotoxicity against mouse RAW264.7 cells assessed as cell viability upto 125 uM incubated for 48 hrs by MTT assay; type: functional, cell-based
[26] = Binding affinity to AgrC-I extra-loop-II (unknown origin) assessed as change in enthalpy incubated for 10 mins by isothermal titration calorimetry analysis
[27] = species on record: Homo sapiens; experiment: Binding affinity to AgrC-I extra-loop-I (unknown origin) assessed as gibbs free energy change incubated for 10 mins by isothermal titration calorimetry analysis
[28] = Binding affinity to AgrC-I extra-loop-II (unknown origin) assessed as dissociation constant incubated for 10 mins by isothermal titration calorimetry analysis
[29] = Binding affinity to AgrC-I extra-loop-III (unknown origin) assessed as dissociation constant incubated for 10 mins by isothermal titration calorimetry analysis
[30] = species on record: Homo sapiens; experiment: Binding affinity to AgrC-I extra-loop-I (unknown origin) assessed as change in entropy incubated for 10 mins by isothermal titration calorimetry analysis
[31] = species on record: Homo sapiens; experiment: Binding affinity to AgrC-I extra-loop-II (unknown origin) assessed as gibbs free energy change incubated for 10 mins by isothermal titration calorimetry analysis
[32] = Binding affinity to AgrC-I extra-loop-I (unknown origin) assessed as dissociation constant incubated for 10 mins by isothermal titration calorimetry analysis
[33] = species on record: Homo sapiens; experiment: Binding affinity to AgrC-I extra-loop-III (unknown origin) assessed as gibbs free energy change incubated for 10 mins by isothermal titration calorimetry analysis
[34] = species on record: Homo sapiens; experiment: Binding affinity to AgrC-I extra-loop-III (unknown origin) assessed as change in entropy incubated for 10 mins by isothermal titration calorimetry analysis
[35] = Binding affinity to AgrC-I extra-loop-I (unknown origin) assessed as change in enthalpy incubated for 10 mins by isothermal titration calorimetry analysis
[36] = species on record: Homo sapiens; experiment: Binding affinity to AgrC-I extra-loop-II (unknown origin) assessed as change in entropy incubated for 10 mins by isothermal titration calorimetry analysis
[37] = Binding affinity to AgrC-I extra-loop-III (unknown origin) assessed as change in enthalpy incubated for 10 mins by isothermal titration calorimetry analysis

Row | Molecule | inhibition [1] | MIC [2] [µM] | MBC [4] [µM] | MIC [5] [µM] | MIC [6] [µM] | MIC [7] [µM] | MBC [8] [µM] | MBC [9] [µM] | MBC [11] [µM] | MIC [12] [µM] | MBC [14] [µM] | MIC [15] [µM] | MIC [17] [µM] | MBC [18] [µM] | MIC [19] [µM] | MBC [20] [µM] | MBC [21] [µM] | MBC [22] [µM] | MIC [23] [µM] | CC50 [24] [µM] | other results
1 | H-LGAKAGGGIKNLWKKMIKLWY-OH | Active | 1.56 | 3.13 | 6.25 | 3.13 | 6.25 | 6.25 | 12.5 | 6.25 | 3.13 | 3.13 | 3.13 | 6.25 | 25 | 6.25 | 3.13 | 3.13 | 6.25 | 3.13 |  | Activity [3]: inactive; Activity [10]: Non-Toxic; Activity [13]: inactive; Activity [16]: inactive
2 | CC[C@H](C)[C@H](NC(=O)CNC(=O)CCCCCN1C(=O)CC(SC[C@H](N)C(=O)NCC(=O)NCC(=O)N[C@H](C(=O)N[C@@H](CC(N)=O)C(=O)N[C@H]2CCNC(=O)[C@H](CC(C)C)NC(=O)[C@H](CC(C)C)NC(=O)[C@H](Cc3ccccc3)NC(=O)[C@H](C)NC2=O)[C@@H](C)CC)C1=O)C(=O)N[C@@H](CCCCN)C(=O)N[C@@H](CC(N)=O)C(=O)N[C@@H](C)C(=O)N[C@@H](Cc1c[nH]c2ccccc12)C(=O)N[C@@H](CCCCN)C(=O)N[C@@H](C)C(=O)N[C@@H](CCSC)C(=O)N[C@H](C(=O)N[C@@H](CCCCN)C(=O)N[C@@H](C)C(=O)N[C@@H](Cc1c[nH]c2ccccc12)C(=O)N[C@@H](Cc1ccc(O)cc1)C(=O)O)[C@@H](C)CC (some centres undefined) (I: GIKNAWKAMIKAWY-OH / II: H-CGGIN[Dab]AFLL; linker I:N-II:1 via X1; lactam II:6-II:C) |  | 3.13 (≈ 8.96 µg/mL) | 3.13 (≈ 8.96 µg/mL) | 6.25 (≈ 17.9 µg/mL) | 6.25 (≈ 17.9 µg/mL) | 6.25 (≈ 17.9 µg/mL) | 12.5 (≈ 35.8 µg/mL) | 6.25 (≈ 17.9 µg/mL) | 12.5 (≈ 35.8 µg/mL) | 6.25 (≈ 17.9 µg/mL) | 6.25 (≈ 17.9 µg/mL) | 3.13 (≈ 8.96 µg/mL) | 6.25 (≈ 17.9 µg/mL) | 12.5 (≈ 35.8 µg/mL) | 12.5 (≈ 35.8 µg/mL) | 6.13 (≈ 17.5 µg/mL) | 6.25 (≈ 17.9 µg/mL) | 12.5 (≈ 35.8 µg/mL) | 6.25 (≈ 17.9 µg/mL) | 105 | 
3 | CC1(C)S[C@@H]2[C@H](NC(=O)[C@H](N)c3ccccc3)C(=O)N2[C@H]1C(=O)O [AMPICILLIN] |  | 0.39 (≈ 0.136 µg/mL) | 6.25 (≈ 2.18 µg/mL) | 12.5 (≈ 4.37 µg/mL) | 1.56 (≈ 0.545 µg/mL) | > 100 | 1.56 (≈ 0.545 µg/mL) |  |  | 0.1 (≈ 0.0349 µg/mL) | 0.19 (≈ 0.0664 µg/mL) | 6.25 (≈ 2.18 µg/mL) | > 100 | 0.78 (≈ 0.273 µg/mL) | 0.78 (≈ 0.273 µg/mL) | 0.39 (≈ 0.136 µg/mL) | 0.19 (≈ 0.0664 µg/mL) | 12.5 (≈ 4.37 µg/mL) | 0.1 (≈ 0.0349 µg/mL) |  | 
4 | H-IKNAWKAMIKAWY-OH |  | 3.13 | 12.5 | 6.25 | 6.25 | 6.25 | 12.5 | 6.25 | 12.5 | 6.25 | 6.25 | 6.25 | 6.25 | 12.5 | 12.5 | 3.13 | 6.25 | 25 | 6.25 | > 125 | Activity [25]: inactive
5 | CC[C@H](C)[C@H](N)C(=O)N[C@@H](CC(N)=O)C(=O)N[C@@H](CCN)C(=O)N[C@@H](C)C(=O)N[C@@H](Cc1ccccc1)C(=O)N[C@@H](CC(C)C)C(=O)N[C@@H](CC(C)C)C(=O)NCC(=O)NCC(=O)NCC(=O)N[C@H](C(=O)N[C@@H](CCCCN)C(=O)N[C@@H](CC(N)=O)C(=O)N[C@@H](CC(C)C)C(=O)N[C@@H](Cc1c[nH]c2ccccc12)C(=O)N[C@@H](CCCCN)C(=O)N[C@@H](CCCCN)C(=O)N[C@@H](CCSC)C(=O)N[C@H](C(=O)N[C@@H](CCCCN)C(=O)N[C@@H](CC(C)C)C(=O)N[C@@H](Cc1c[nH]c2ccccc12)C(=O)N[C@@H](Cc1ccc(O)cc1)C(=O)O)[C@@H](C)CC)[C@@H](C)CC (H-IN[Dab]AFLLGGGIKNLWKKMIKLWY-OH) | Active | 1.56 (≈ 4.22 µg/mL) | 6.25 (≈ 16.9 µg/mL) | 6.25 (≈ 16.9 µg/mL) | 3.13 (≈ 8.47 µg/mL) | 6.25 (≈ 16.9 µg/mL) | 3.13 (≈ 8.47 µg/mL) | 6.25 (≈ 16.9 µg/mL) | 12.5 (≈ 33.8 µg/mL) | 3.13 (≈ 8.47 µg/mL) | 6.25 (≈ 16.9 µg/mL) | 6.25 (≈ 16.9 µg/mL) | 3.13 (≈ 8.47 µg/mL) | 12.5 (≈ 33.8 µg/mL) | 6.25 (≈ 16.9 µg/mL) | 3.13 (≈ 8.47 µg/mL) | 6.25 (≈ 16.9 µg/mL) | 12.5 (≈ 33.8 µg/mL) | 3.13 (≈ 8.47 µg/mL) |  | deltaH [26]: -15.6 kcal/mol; deltaG [27]: -11.8 kcal/mol; Kd [28]: 3780 µM; Kd [29]: 0.139 µM; -TdeltaS [30]: -20.9 kcal/mol; deltaG [31]: -3.31 kcal/mol; Kd [32]: 0.00205 µM; deltaG [33]: -9.36 kcal/mol; -TdeltaS [34]: 70.6 kcal/mol; deltaH [35]: 9.06 kcal/mol; -TdeltaS [36]: 12.3 kcal/mol; deltaH [37]: -80 kcal/mol
